24 compounds from patent publication US20090004185A1, “AMINO-SUBSTITUTED QUINAZOLINE DERIVATIVES AS INHIBITORS OF BETA-CATENIN/TCF-4 PATHWAY AND CANCER TREATMENT AGENTS” (WYETH, priority 2007, published 2009) can be followed below.

Experiment [1] has as its system β-catenin/Tcf-4. As to the kind of experiment: cells. It is filed as cell-based. The note with it: 24 hours of incubation with compound, ratio Firefly/Renilla luciferase. A digest of the protocol: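 SW480-derived lines with integrated reporters (Tcf-4-driven firefly luciferase; SV40 firefly as specificity control; SV40 Renilla for cell number/toxicity), treated 24 hours with titrated compounds, final 0.316% DMSO. Dual-luciferase read-out; firefly/Renilla ratio as % of control, duplicate plates, IC50 (nM) from curve fit.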

Experiment [2] has as its system SV40-Luc. As to the kind of experiment: SV40-Luc control luciferase reporter assay, SV 5A8 cell line (SV40-Luc and SV40-R-Luc), control for non-specific inhibitors. It is filed as cell-based, human. The following applies: SV 5A8 cells derived from SW480, 24 hours of incubation with compound, ratio Firefly/Renilla luciferase. A digest of the protocol:
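Dual-luciferase readout in SW480 lines with chromosomally integrated reporters, namely Tcf-4-driven firefly in Tcf 33.13 and Tcf 22C11, and SV40-driven firefly in SV 5A8, all with SV40-Renilla. Compound incubation is 24 h; IC50 comes from the normalised F/R ratio.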
A general note: Reporter assays use an easily measured gene product as a stand-in for the process of interest.

Setting [3] is: Homo sapiens, SW480, 24 h, Tcf 33.13 cells derived from SW480.
Where [4] appears, read: Homo sapiens, Tcf22C11, 24 h, Tcf 22C11 cells derived from SW480.
[5] abbreviates: Tcf 22C11 cells derived from SW480.
Where [6] appears, read: Tcf 33.13 cells derived from SW480.

What is called IC50 is the midpoint of a concentration-inhibition curve. On to `O=C(Nc1ccc(CNc2nc(N3CCN(c4ncccn4)CC3)nc3ccc(C(F)(F)F)cc23)cc1)C1CCN(Cc2ccc(F)cc2)CC1` [Example 157, 1-(4-fluorobenzyl)-N-[4-({[2-(4-pyrimidin-2-ylpiperazin-1-yl)-6-(trifluoromethyl)quinazolin-4-yl]amino}methyl)phenyl]piperidine-4-carboxamide], for which the IC50 is more than 3570 nM in experiment [1] (setting [3]); more than 7140 nM in experiment [1] (setting [4]); more than 7140 nM in experiment [2] (Homo sapiens, SV5A8, 24 h).
Take `CN(C)c1nc(NCc2ccc(NC(=O)C3CCN(Cc4ccccc4)CC3)cc2)c2ccc(/C=C/C(C)(C)C)cc2n1` [Example 152, 1-benzyl-N-{4-[({2-(dimethylamino)-7-[(1E)-3,3-dimethylbut-1-en-1-yl]quinazolin-4-yl}amino)methyl]phenyl}piperidine-4-carboxamide]: the half-maximal inhibitory concentration (IC50) in experiment [1] (setting [3]) is more than 962 nM; in experiment [1] (setting [4]), 1050 nM; in experiment [2] (Homo sapiens, SV5A8, 24 h), more than 3850 nM.
On the same counts, the results for `O=C(Nc1ccc(CNc2nc(NC3CCC3)nc3ccccc23)cc1)c1ccc(F)cc1` [Example 115, N-[4-({[2-(cyclobutylamino)quinazolin-4-yl]amino}methyl)phenyl]-4-fluorobenzamide] are 991 nM, 1380 nM and more than 2830 nM.
Regarding `Cc1ccc2c(N[C@H](C)c3ccc(NC(=O)c4ccc(F)cc4)cc3)nc(N(C)C)nc2c1` [Example 272, (R)—N-(4-(1-(2-(dimethylamino)-7-methylquinazolin-4-ylamino)ethyl)phenyl)-4-fluorobenzamide], the IC50 in experiment [1] (setting [3]) was 986 nM; in experiment [1] (setting [4]), 894 nM; in experiment [2] (Homo sapiens, SV5A8, 24 h) it was more than 5420 nM.
For `CNc1nc(NCc2ccc(NC(=O)c3ccc(Cl)cc3)cc2)c2cc(-c3ccco3)cc(C)c2n1` [Example 67, 4-chloro-N-[4-({[6-(2-furyl)-8-methyl-2-(methylamino)quinazolin-4-yl]amino}methyl)phenyl]benzamide] the same measures were 1450 nM, 1210 nM and more than 10000 nM.
In the case of “N-(4-{[(2-azetidin-1-yl-7-methylquinazolin-4-yl)amino]methyl}phenyl)-1-benzylpiperidine-4-carboxamide [Example 137]”, the IC50 in experiment [1] (setting [5]) is 1260 nM; in experiment [1] (setting [6]) it was 1130 nM; in experiment [2] it was more than 17300 nM.
On the same counts, the results for `Cc1ccc2nc(N(C)C)nc(NCc3ccc(NC(=O)c4ccc(F)cc4)cc3)c2c1` [Example 40, N-[4-({[2-(dimethylamino)-6-methylquinazolin-4-yl]amino}methyl)phenyl]-4-fluorobenzamide] are 1620 nM, 2050 nM and more than 11600 nM.
Regarding `Cc1ccc2c(NCc3ccc(NC(=O)C4CCN(Cc5ccccc5)CC4)cc3)nc(N(C)CCN(C)C)nc2c1` [Example 144, 1-benzyl-N-{4-[({2-[[2-(dimethylamino)ethyl](methyl)amino]-7-methylquinazolin-4-yl}amino)methyl]phenyl}piperidine-4-carboxamide], the IC50 is 1440 nM in experiment [1] (setting [3]); 2270 nM in experiment [1] (setting [4]); more than 8840 nM in experiment [2] (Homo sapiens, SV5A8, 24 h).
`CN(C)c1nc(NCc2ccc(NC(=O)c3ccc(Cl)nc3)cc2)c2ccccc2n1` [Example 128, 6-chloro-N-[4-({[2-(dimethylamino)quinazolin-4-yl]amino}methyl)phenyl]nicotinamide]: the IC50 in experiment [1] (setting [3]) was 708 nM; in experiment [1] (setting [4]), 1130 nM; in experiment [2] (Homo sapiens, SV5A8, 24 h) it was more than 23100 nM.
On to `Cc1ccc2c(N[C@@H](C)c3ccc(NC(=O)c4ccc(Cl)nc4)cc3)nc(N(C)C)nc2c1` [Example 269, (S)-6-chloro-N-(4-(1-(2-(dimethylamino)-7-methylquinazolin-4-ylamino)ethyl)phenyl)nicotinamide], for which the IC50 in experiment [1] (setting [3]) is 319 nM; in experiment [1] (setting [4]), 439 nM; in experiment [2] (Homo sapiens, SV5A8, 24 h) it was more than 11300 nM.
As to `CN(C)c1nc(NCc2ccc(NC(=O)c3ccc(F)cc3)cc2)c2ccc(-c3cccnc3Cl)cc2n1` [Example 100, N-[4-({[7-(2-chloropyridin-3-yl)-2-(dimethylamino)quinazolin-4-yl]amino}methyl)phenyl]-4-fluorobenzamide], the concentration for half-maximal inhibition (IC50) in experiment [1] (setting [3]) is 541 nM; in experiment [1] (setting [4]), 548 nM; in experiment [2] (Homo sapiens, SV5A8, 24 h), more than 17700 nM.
On the same counts, the results for `Cc1ccc2c(NCc3ccc(NC(=O)c4ccc(F)cc4)cc3)nc(N3CCN(Cc4ccc5c(c4)OCO5)CC3)nc2c1` [Example 215, N-{4-[({2-[4-(1,3-benzodioxol-5-ylmethyl)piperazin-1-yl]-7-methylquinazolin-4-yl}amino)methyl]phenyl}-4-fluorobenzamide] are 3190 nM, 1960 nM and more than 12000 nM.
For `Cc1ccc2nc(N(C)C)nc(NCc3ccc(NC(=O)c4ccc(Cl)cc4)cc3)c2c1` [Example 53, 4-chloro-N-[4-({[2-(dimethylamino)-6-methylquinazolin-4-yl]amino}methyl)phenyl]benzamide] the same measures were 306 nM, 462 nM and more than 2800 nM.
For `Cc1ccc2nc(N3CCN[C@@H](C)C3)nc(NCc3ccc(NC(=O)c4ccc(F)cc4)cc3)c2c1` [Example 51, 4-fluoro-N-{4-[({6-methyl-2-[(3S)-3-methylpiperazin-1-yl]quinazolin-4-yl}amino)methyl]phenyl}benzamide] the same measures were 987 nM, 1070 nM and more than 5160 nM.
As to `Cc1ccc2c(NCc3ccc(NC(=O)c4ccc(F)cc4)cc3)nc(N3CCC(N4CCCC4)CC3)nc2c1` [Example 226, 4-fluoro-N-[4-({[7-methyl-2-(4-pyrrolidin-1-ylpiperidin-1-yl)quinazolin-4-yl]amino}methyl)phenyl]benzamide], the IC50 is 754 nM in experiment [1] (setting [3]); 866 nM in experiment [1] (setting [4]); more than 9280 nM in experiment [2] (Homo sapiens, SV5A8, 24 h).
“4-chloro-2-fluoro-N-[4-({[6-methyl-2-(methylamino)quinazolin-4-yl]amino}methyl)phenyl]benzamide [Example 26]”: the IC50 was 739 nM in experiment [1] (setting [5]), 614 nM in experiment [1] (setting [6]) and more than 2780 nM in experiment [2].
As to `Cc1ccc2c(NCc3ccc(NC(=O)C4CCN(Cc5ccc(Cl)c(F)c5)CC4)cc3)nc(N(C)C)nc2c1` [Example 263, 1-(4-chloro-3-fluorobenzyl)-N-[4-({[2-(dimethylamino)-7-methylquinazolin-4-yl]amino}methyl)phenyl]piperidine-4-carboxamide], the IC50 was 410 nM in experiment [1] (setting [3]); 422 nM in experiment [1] (setting [4]); more than 1970 nM in experiment [2] (Homo sapiens, SV5A8, 24 h).
For `CCN1CCN(c2nc(NCc3ccc(NC(=O)c4ccc(F)cc4)cc3)c3ccc(C)cc3n2)CC1` [Example 227, N-[4-({[2-(4-ethylpiperazin-1-yl)-7-methylquinazolin-4-yl]amino}methyl)phenyl]-4-fluorobenzamide] the same measures were 736 nM, 1150 nM and more than 10000 nM.
On the same counts, the results for `O=C(Nc1ccc(CNc2nc(N3CCCCC3)nc3ccccc23)cc1)c1ccc(F)cc1` [Example 123, 4-fluoro-N-(4-{[(2-piperidin-1-ylquinazolin-4-yl)amino]methyl}phenyl)benzamide] are 2930 nM, 5850 nM and more than 11000 nM.
For `Cc1ccc2c(NCc3ccc(NC(=O)c4ccc(F)cc4)cc3)nc(N3CCN(c4ccccc4)CC3)nc2c1` [Example 212, 4-fluoro-N-[4-({[7-methyl-2-(4-phenylpiperazin-1-yl)quinazolin-4-yl]amino}methyl)phenyl]benzamide] the same measures were 2680 nM, 3100 nM and more than 12900 nM.
For `O=C(Nc1ccc(CNc2nc(NCc3ccco3)nc3ccccc23)cc1)c1ccc(F)cc1` [Example 124, 4-fluoro-N-{4-[({2-[(2-furylmethyl)amino]quinazolin-4-yl}amino)methyl]phenyl}benzamide], the IC50 in experiment [1] (setting [3]) is 332 nM; in experiment [1] (setting [4]) it was 674 nM; in experiment [2] (Homo sapiens, SV5A8, 24 h) it was more than 1340 nM.
For `Cc1ccc2nc(N3CCCCC3)nc(NCc3ccc(NC(=O)c4ccc(F)cc4)cc3)c2c1` [Example 42, 4-fluoro-N-(4-{[(6-methyl-2-piperidin-1-ylquinazolin-4-yl)amino]methyl}phenyl)benzamide] the same measures were 2940 nM, 9250 nM and more than 10600 nM.
For `CNc1nc(NCc2ccc(NC(=O)c3ccc(C#N)cc3)cc2)c2cc(C)ccc2n1` [Example 25, 4-cyano-N-[4-({[6-methyl-2-(methylamino)quinazolin-4-yl]amino}methyl)phenyl]benzamide] the same measures were 2960 nM, 2710 nM and more than 5920 nM.
For `CCOC(=O)N1CCN(c2nc(NCc3ccc(NC(=O)c4ccc(F)cc4)cc3)c3cc(C)ccc3n2)CC1` [Example 54, Ethyl 4-[4-({4-[(4-fluorobenzoyl)amino]benzyl}amino)-6-methylquinazolin-2-yl]piperazine-1-carboxylate] the same measures were 846 nM, 1230 nM and more than 18400 nM.
